Measurements as given in PubChem BioAssay AID1117319 (Southern Research Institute, 2015).
Results filed as inconclusive are left out.

biological target: Virion infectivity factor (Human immunodeficiency virus type 1 group M subtype B (isolate BH10)) + Virion infectivity factor (Human immunodeficiency virus type 1 group M subtype B (isolate BRU/LAI)) + Virion infectivity factor (Human immunodeficiency virus type 1 group M subtype B (isolate PCV12)) + Virion infectivity factor (Human immunodeficiency virus type 1 group M subtype B (isolate HXB2)) + DNA dC->dU-editing enzyme APOBEC-3G (Homo sapiens) (UniProt P69720+P69721+P69722+P69723+Q9HC16); assay: inhibitors of Vif binding to APOBEC3G peptide, primary screen, biochemical, TR-FRET, GST-Vif 1-94, biotin-A3G peptide, dose response retest (AID 1117319);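 also: Vif residues 1-94 fused to GST binding biotinylated APOBEC3G peptide 110-148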

`O=C(O)/C=C/C(=O)Nc1cccnc1` was tested. Which IC50 did it give?
Its IC50 is 62.9 µM.

How did the IC50 turn out when `N=C1/C(=C\c2ccc(SCc3ccco3)o2)C(=O)N=C2SC=NN12` was run?
The IC50 was 1.21 µM.

Which IC50 does the source give for `O=[N+]([O-])c1cc2no[n+]([O-])c2cc1N1CCCCC1` here?
The IC50 was 7.67 µM.

How did the IC50 turn out when `Cc1ccccc1NC(=O)c1c(C)[nH]c(=S)c(C#N)c1-c1ccco1` was run?
Its IC50 is 18.7 µM.

Which IC50 does the source give for `CC(/C=C/c1ccco1)=N\NC(=O)c1cccnc1` here?
The IC50 was 20.3 µM.

`CN1C(=O)/C(=C/c2ccco2)SC1=Nc1cccc(C(=O)O)c1` was tested. Which IC50 did it give?
The IC50 was 19 µM.

`CN(C)c1ccc(NC(=O)CSc2nc3ccccc3c(=O)n2C2CCCCC2)cc1` was tested. Which IC50 did it give?
Its IC50 is 21.7 µM.

For `N#Cc1c(NC(=O)CSc2ncnc3sccc23)oc(-c2ccco2)c1-c1ccco1`, which IC50 is on record?
The IC50 was 0.95 µM.

Which IC50 does the source give for `O=C(N/N=C/C=C/c1ccco1)c1ccncc1` here?
Its IC50 is 2.36 µM.

How did the IC50 turn out when `[O-][n+]1onc2c1CCc1c-2nc(-c2ccccc2)n1OCc1ccccc1` was run?
The IC50 was 76.9 µM.

`C=C(C)C(=O)Nc1ccc2c(c1)OCCOCCOCCO2` was tested. Which IC50 did it give?
The IC50 was 1.89 µM.

`NS(=O)(=O)c1ccc(N=Nc2c[nH]c(=O)c(O)c2)cc1` was tested. Which IC50 did it give?
Its IC50 is 4.08 µM.

Which IC50 does the source give for `COc1ccccc1-n1cnc2cc(NCc3cccs3)ccc21` here?
The IC50 was 82.7 µM.

Which IC50 does the source give for `CCN1CCc2c(C#N)c(NCc3ccccc3)nc(N(CC)CC)c2C1` here?
The IC50 was 62.8 µM.

For `CCOc1cc(N2CCOCC2)c(OCC)cc1NS(=O)(=O)c1ccc(Cl)s1`, which IC50 is on record?
The IC50 was 3.22 µM.

`Cc1onc(-c2ccccc2Cl)c1C(=O)N1CCN(c2cccc(Cl)c2)CC1` was tested. Which IC50 did it give?
Its IC50 is 95.4 µM.

With `O=C(O)c1ccc2c(c1)C1C=CCC1C(c1ccncc1)N2` (stereo not given) as the compound, how does the IC50 read?
The IC50 was 3.85 µM.

For `CC(C)c1ccc(/C=C/C(=O)N2CCc3ccccc3C2)cc1`, which IC50 is on record?
The IC50 was 17.9 µM.

With `O=C(O)CCc1ccc(-c2cccs2)n1-c1ccc(C(=O)O)cc1` as the compound, how does the IC50 read?
The IC50 was 80.6 µM.

`CC1CCN(Cc2c(O)ccc3c2O/C(=C\c2ccco2)C3=O)CC1` was tested. Which IC50 did it give?
Its IC50 is 3 µM.

`Cc1cccc(C)c1NC(=O)COC(=O)c1cc(-c2cccnc2)nc2ccccc12` was tested. Which IC50 did it give?
The IC50 was 41.4 µM.

For `Cc1cc(C(=O)CSc2nc3ccccc3c(=O)[nH]2)c(C)n1C`, which IC50 is on record?
Its IC50 is 31.6 µM.

With `CC(=O)N(C1=C(Cl)C(=O)c2ccccc2C1=O)c1ccc(C(=O)O)cc1` as the compound, how does the IC50 read?
The IC50 was 59.7 µM.

With `CNc1ccc(Br)cc(C(=O)/C=C/c2ccc(OC)cc2OC)c1=O` as the compound, how does the IC50 read?
The IC50 was 2.79 µM.

How did the IC50 turn out when `Cc1cc(C)c2c(=N)c3ccccc3n(CCCCCCCCn3c4ccccc4c(=N)c4c(C)cc(C)nc43)c2n1` was run?
The IC50 was 1.46 µM.

For `C=C(C)C(=O)Nc1cccc(C2=NOC3(C2)C[C@H](C(N)=O)N(C(=O)C(c2ccccc2)c2ccccc2)C3)c1` (stereo not given in full), which IC50 is on record?
Its IC50 is 2.41 µM.

`O=C(Nc1nc(-c2ccco2)c(-c2ccco2)s1)C1CCC1` was tested. Which IC50 did it give?
Its IC50 is 1.93 µM.

With `CCc1cccc(NC(=O)CCCCCC2NC(=O)NC2C)c1` (stereo not given) as the compound, how does the IC50 read?
Its IC50 is 0.47 µM.

`Nc1ccc(Oc2ncccn2)cc1` was tested. Which IC50 did it give?
Its IC50 is 24.4 µM.

How did the IC50 turn out when `O=C1Cc2cccc(=O)c(O)c2C(=O)O1` was run?
Its IC50 is 14 µM.

How did the IC50 turn out when `CSc1ccccc1NC(=O)c1noc2c1CCC2` was run?
The IC50 was 18.4 µM.

`Cc1cc(/C=C2\C(=O)NC(=O)N(Cc3ccco3)C2=O)c(C)n1-c1ccc(O)cc1` was tested. Which IC50 did it give?
Its IC50 is 5.88 µM.

`O=C(O)CSc1c2c(nc3cc(C(=O)N4CCOCC4)ccc13)CCCC2` was tested. Which IC50 did it give?
Its IC50 is 5.6 µM.

`CC(C)C(C(=O)O)N1C(=O)/C(=C/C=C/c2ccco2)SC1=S` (stereo not given) was tested. Which IC50 did it give?
The IC50 was 0.36 µM.

Which IC50 does the source give for `O=C(CSc1nc2cc([N+](=O)[O-])ccc2n1-c1ccccc1)NCc1ccc2c(c1)OCO2` here?
The IC50 was 46.6 µM.

`O=[N+]([O-])c1cc(CN2CCN(c3cccc(C(F)(F)F)c3)CC2)c2cccnc2c1O` was tested. Which IC50 did it give?
Its IC50 is 8.68 µM.

`C=CCn1c(N2CCCCCC2)nc2c1c(=O)[nH]c(=O)n2C` was tested. Which IC50 did it give?
Its IC50 is 30.1 µM.

With `Oc1ccc(/C=N/N2CCCCC2)c(O)c1O` as the compound, how does the IC50 read?
The IC50 was 19.2 µM.

For `CNc1ccc(Br)cc(C(=O)/C=C/c2ccc3c(c2)OCO3)c1=O`, which IC50 is on record?
The IC50 was 21.9 µM.

With `O=C(O)c1ccc2c(c1)C1C(Cl)C(Sc3ccccc3[N+](=O)[O-])CC1C(c1cccc([N+](=O)[O-])c1)N2` (stereo not given) as the compound, how does the IC50 read?
The IC50 was 11.8 µM.

With `Cn1cccc1/C=C1/C(=O)NC(=O)N(Cc2ccccc2)C1=O` as the compound, how does the IC50 read?
Its IC50 is 3.33 µM.

`CCOC(=O)NC1(NC2CCCCC2)Oc2ccccc2O1` was tested. Which IC50 did it give?
The IC50 was 7.31 µM.

How did the IC50 turn out when `CCCSC1=N/C(=C\c2ccc([N+](=O)[O-])o2)C(=O)S1` was run?
The IC50 was 12.9 µM.

For `Cc1cc2nc(C)n(CCCNC(=O)Nc3ccc(F)cc3)c2cc1C`, which IC50 is on record?
Its IC50 is 47.6 µM.

Which IC50 does the source give for `O=C(NCCCO)c1ccc2nc(-c3ccco3)c(-c3ccco3)nc2c1` here?
The IC50 was 0.72 µM.

With `O=C(c1ccc(=O)oc1)N1CCCc2ccccc21` as the compound, how does the IC50 read?
Its IC50 is 38.3 µM.

How did the IC50 turn out when `CC1CC(=O)c2c(cc3c(-c4c(O)cc(O)c5c(O)c6c(cc45)OC(C)CC6=O)c(O)cc(O)c3c2O)O1` (stereo not given) was run?
Its IC50 is 0.41 µM.

For `COc1cc2[nH]c(Cl)c([N+](=O)[O-])c2cc1OC`, which IC50 is on record?
Its IC50 is 3.81 µM.

How did the IC50 turn out when `O=C(OCC1O[C@@H](OC(=O)c2cc(O)c(O)c(O)c2)[C@@H](OC(=O)c2cc(O)c(O)c(O)c2)[C@@H](OC(=O)c2cc(O)c(O)c(O)c2)[C@@H]1OC(=O)c1cc(O)c(O)c(O)c1)c1cc(O)c(O)c(O)c1` (stereo not given in full) was run?
Its IC50 is less than 0.195 µM.

How did the IC50 turn out when `CCC(=O)OCCNc1cc(Sc2nc3ccccc3[nH]2)c2nonc2c1[N+](=O)[O-]` was run?
The IC50 was 9.48 µM.

For `CCc1ccc(CC)c(S(=O)(=O)Nc2ccc(C(=O)O)c(O)c2)c1`, which IC50 is on record?
Its IC50 is 35.3 µM.

Which IC50 does the source give for `O=C(O)C1Nc2c(C(=O)N3CCOCC3)cccc2C2C=CCC12` (stereo not given) here?
The IC50 was 2.02 µM.

For `O=[N+]([O-])c1cc2ccccc2c(O)c1O`, which IC50 is on record?
The IC50 was 22.2 µM.

Which IC50 does the source give for `Cc1ccc(N2CCN(c3ccc(C)cc3)C2c2ccccn2)cc1` here?
Its IC50 is 75.8 µM.

`O=C(O)c1cc(N2N=C(C(F)(F)F)/C(=C/C=C/c3ccco3)C2=O)ccc1Cl` was tested. Which IC50 did it give?
The IC50 was 1.04 µM.
